Measured values published in PMC8699473, “An Easily Expandable Multi-Drug LC-MS Assay for the Simultaneous Quantification of 57 Oral Antitumor Drugs in Human Plasma” (Cancers, 2021).

How the values were obtained:
[1] = Short-term stability in spiked pooled human plasma (bench-top, 4 °C, 56 °C)
[2] = parameters: method as in supplement references [1-55] as printed per drug; settings: minimum steady-state blood plasma concentration after multiple dose administration; ref supplement references [1-55] per drug; cited from earlier work
[3] = Autosampler stability of ready for injection samples; type: physicochemical, human
[4] = Freeze-thaw stability in spiked pooled human plasma; type: physicochemical
[5] = Long-term stability in spiked pooled human plasma

CC(=O)Nc1cccc(-n2c(=O)n(C3CC3)c(=O)c3c(Nc4ccc(I)cc4F)n(C)c(=O)c(C)c32)c1 [Trametinib]
Short-time stability (1h, 56°C) Accuracy [%] ([1]; validation standard 2xLLOV): 40.7%
Short-time stability (24h, 4°C, without daylight) Accuracy [%] ([1]; validation standard 2xLLOV): 101.9%
Short-time stability (24h, RT, with daylight) Accuracy [%] ([1]; validation standard 2xLLOV): 88.2%
Short-time stability (24h, RT, without daylight) Accuracy [%] ([1]; validation standard 2xLLOV): 94.3%
Short-time stability (1h, 56°C) Accuracy [%] ([1]; validation standard LLOV): 0.4%
Short-time stability (24h, 4°C, without daylight) Accuracy [%] ([1]; validation standard LLOV): 90.4%
Short-time stability (24h, RT, with daylight) Accuracy [%] ([1]; validation standard LLOV): 78.3%
Short-time stability (24h, RT, without daylight) Accuracy [%] ([1]; validation standard LLOV): 53.1%
Short-time stability (1h, 56°C) Accuracy [%] ([1]; validation standard MOV): 52.0%
Short-time stability (24h, 4°C, without daylight) Accuracy [%] ([1]; validation standard MOV): 115.0%
Short-time stability (24h, RT, with daylight) Accuracy [%] ([1]; validation standard MOV): 101.6%
Short-time stability (24h, RT, without daylight) Accuracy [%] ([1]; validation standard MOV): 99.7%
Short-time stability (1h, 56°C) Accuracy [%] ([1]; validation standard ULOV): 47.5%
Short-time stability (24h, 4°C, without daylight) Accuracy [%] ([1]; validation standard ULOV): 108.2%
Short-time stability (24h, RT, with daylight) Accuracy [%] ([1]; validation standard ULOV): 96.8%
Short-time stability (24h, RT, without daylight) Accuracy [%] ([1]; validation standard ULOV): 92.2%
cmin [2]: 12.1 ng/mL
Autosampler (24h, 4°C) Accuracy [%] ([3]; validation standard 2xLLOV): 105.8%
Autosampler (72h, 4°C) Accuracy [%] ([3]; validation standard 2xLLOV): 101.8%
Autosampler (24h, 4°C) Accuracy [%] ([3]; validation standard LLOV): 101.7%
Autosampler (72h, 4°C) Accuracy [%] ([3]; validation standard LLOV): 100.1%
Autosampler (24h, 4°C) Accuracy [%] ([3]; validation standard MOV): 103.1%
Autosampler (72h, 4°C) Accuracy [%] ([3]; validation standard MOV): 103.5%
Autosampler (24h, 4°C) Accuracy [%] ([3]; validation standard ULOV): 97.7%
Autosampler (72h, 4°C) Accuracy [%] ([3]; validation standard ULOV): 97.0%
Freeze-Thaw Accuracy [%] ([4]; validation standard 2xLLOV): 97.6%
Freeze-Thaw Accuracy [%] ([4]; validation standard LLOV): 93.8%
Freeze-Thaw Accuracy [%] ([4]; validation standard MOV): 102.5%
Freeze-Thaw Accuracy [%] ([4]; validation standard ULOV): 97.0%
Long-term stability, 1 month, -20°C Accuracy [%] ([5]; validation standard 2xLLOV): 105.1%
Long-term stability, 1 month, -80°C Accuracy [%] ([5]; validation standard 2xLLOV): 110.9%
Long-term stability, 2 month, -20°C Accuracy [%] ([5]; validation standard 2xLLOV): 123.9%
Long-term stability, 2 month, -80°C Accuracy [%] ([5]; validation standard 2xLLOV): 104.2%
Long-term stability, 3 month, -20°C Accuracy [%] ([5]; validation standard 2xLLOV): 105.5%
Long-term stability, 3 month, -80°C Accuracy [%] ([5]; validation standard 2xLLOV): 103.8%
Long-term stability, 6 weeks, 4°C, without daylight Accuracy [%] ([5]; validation standard 2xLLOV): 97.4%
Long-term stability, 1 month, -20°C Accuracy [%] ([5]; validation standard LLOV): 111.6%
Long-term stability, 1 month, -80°C Accuracy [%] ([5]; validation standard LLOV): 101.9%
Long-term stability, 2 month, -20°C Accuracy [%] ([5]; validation standard LLOV): 111.6%
Long-term stability, 2 month, -80°C Accuracy [%] ([5]; validation standard LLOV): 103.4%
Long-term stability, 3 month, -20°C Accuracy [%] ([5]; validation standard LLOV): 96.6%
Long-term stability, 3 month, -80°C Accuracy [%] ([5]; validation standard LLOV): 104.8%
Long-term stability, 6 weeks, 4°C, without daylight Accuracy [%] ([5]; validation standard LLOV): 101.5%
Long-term stability, 1 month, -20°C Accuracy [%] ([5]; validation standard MOV): 105.2%
Long-term stability, 1 month, -80°C Accuracy [%] ([5]; validation standard MOV): 107.1%
Long-term stability, 2 month, -20°C Accuracy [%] ([5]; validation standard MOV): 116.1%
Long-term stability, 2 month, -80°C Accuracy [%] ([5]; validation standard MOV): 117.6%
Long-term stability, 3 month, -20°C Accuracy [%] ([5]; validation standard MOV): 102.9%
Long-term stability, 3 month, -80°C Accuracy [%] ([5]; validation standard MOV): 102.5%
Long-term stability, 6 weeks, 4°C, without daylight Accuracy [%] ([5]; validation standard MOV): 103.9%
Long-term stability, 1 month, -20°C Accuracy [%] ([5]; validation standard ULOV): 103.2%
Long-term stability, 1 month, -80°C Accuracy [%] ([5]; validation standard ULOV): 99.6%
Long-term stability, 2 month, -20°C Accuracy [%] ([5]; validation standard ULOV): 119.8%
Long-term stability, 2 month, -80°C Accuracy [%] ([5]; validation standard ULOV): 115.3%
Long-term stability, 3 month, -20°C Accuracy [%] ([5]; validation standard ULOV): 94.5%
Long-term stability, 3 month, -80°C Accuracy [%] ([5]; validation standard ULOV): 106.9%
Long-term stability, 6 weeks, 4°C, without daylight Accuracy [%] ([5]; validation standard ULOV): 94.7%

COc1cc(N2CCC(N3CCN(C)CC3)CC2)ccc1Nc1ncc(Cl)c(Nc2ccccc2P(C)(C)=O)n1 [Brigatinib]
Short-time stability (1h, 56°C) Accuracy [%] ([1]; validation standard 2xLLOV): 18.2%
Short-time stability (24h, 4°C, without daylight) Accuracy [%] ([1]; validation standard 2xLLOV): 102.8%
Short-time stability (24h, RT, with daylight) Accuracy [%] ([1]; validation standard 2xLLOV): 76.4%
Short-time stability (24h, RT, without daylight) Accuracy [%] ([1]; validation standard 2xLLOV): 74.1%
Short-time stability (1h, 56°C) Accuracy [%] ([1]; validation standard LLOV): 7.8%
Short-time stability (24h, 4°C, without daylight) Accuracy [%] ([1]; validation standard LLOV): 95.0%
Short-time stability (24h, RT, with daylight) Accuracy [%] ([1]; validation standard LLOV): 55.6%
Short-time stability (24h, RT, without daylight) Accuracy [%] ([1]; validation standard LLOV): 55.1%
Short-time stability (1h, 56°C) Accuracy [%] ([1]; validation standard MOV): 38.5%
Short-time stability (24h, 4°C, without daylight) Accuracy [%] ([1]; validation standard MOV): 104.2%
Short-time stability (24h, RT, with daylight) Accuracy [%] ([1]; validation standard MOV): 85.3%
Short-time stability (24h, RT, without daylight) Accuracy [%] ([1]; validation standard MOV): 93.4%
Short-time stability (1h, 56°C) Accuracy [%] ([1]; validation standard ULOV): 35.7%
Short-time stability (24h, 4°C, without daylight) Accuracy [%] ([1]; validation standard ULOV): 93.7%
Short-time stability (24h, RT, with daylight) Accuracy [%] ([1]; validation standard ULOV): 91.3%
Short-time stability (24h, RT, without daylight) Accuracy [%] ([1]; validation standard ULOV): 90.3%
cmin [2]: 520 ng/mL
Autosampler (24h, 4°C) Accuracy [%] ([3]; validation standard 2xLLOV): 96.4%
Autosampler (72h, 4°C) Accuracy [%] ([3]; validation standard 2xLLOV): 91.9%
Autosampler (24h, 4°C) Accuracy [%] ([3]; validation standard LLOV): 90.7%
Autosampler (72h, 4°C) Accuracy [%] ([3]; validation standard LLOV): 85.3%
Autosampler (24h, 4°C) Accuracy [%] ([3]; validation standard MOV): 104.4%
Autosampler (72h, 4°C) Accuracy [%] ([3]; validation standard MOV): 95.5%
Autosampler (24h, 4°C) Accuracy [%] ([3]; validation standard ULOV): 96.1%
Autosampler (72h, 4°C) Accuracy [%] ([3]; validation standard ULOV): 96.6%
Freeze-Thaw Accuracy [%] ([4]; validation standard 2xLLOV): 98.7%
Freeze-Thaw Accuracy [%] ([4]; validation standard LLOV): 111.4%
Freeze-Thaw Accuracy [%] ([4]; validation standard MOV): 95.5%
Freeze-Thaw Accuracy [%] ([4]; validation standard ULOV): 97.9%
Long-term stability, 1 month, -20°C Accuracy [%] ([5]; validation standard 2xLLOV): 92.4%
Long-term stability, 1 month, -80°C Accuracy [%] ([5]; validation standard 2xLLOV): 92.1%
Long-term stability, 2 month, -20°C Accuracy [%] ([5]; validation standard 2xLLOV): 105.4%
Long-term stability, 2 month, -80°C Accuracy [%] ([5]; validation standard 2xLLOV): 110.2%
Long-term stability, 3 month, -20°C Accuracy [%] ([5]; validation standard 2xLLOV): 96.3%
Long-term stability, 3 month, -80°C Accuracy [%] ([5]; validation standard 2xLLOV): 99.0%
Long-term stability, 6 weeks, 4°C, without daylight Accuracy [%] ([5]; validation standard 2xLLOV): 94.2%
Long-term stability, 1 month, -20°C Accuracy [%] ([5]; validation standard LLOV): 93.6%
Long-term stability, 1 month, -80°C Accuracy [%] ([5]; validation standard LLOV): 88.3%
Long-term stability, 2 month, -20°C Accuracy [%] ([5]; validation standard LLOV): 100.6%
Long-term stability, 2 month, -80°C Accuracy [%] ([5]; validation standard LLOV): 96.7%
Long-term stability, 3 month, -20°C Accuracy [%] ([5]; validation standard LLOV): 92.1%
Long-term stability, 3 month, -80°C Accuracy [%] ([5]; validation standard LLOV): 93.0%
Long-term stability, 6 weeks, 4°C, without daylight Accuracy [%] ([5]; validation standard LLOV): 89.6%
Long-term stability, 1 month, -20°C Accuracy [%] ([5]; validation standard MOV): 100.8%
Long-term stability, 1 month, -80°C Accuracy [%] ([5]; validation standard MOV): 96.9%
Long-term stability, 2 month, -20°C Accuracy [%] ([5]; validation standard MOV): 108.5%
Long-term stability, 2 month, -80°C Accuracy [%] ([5]; validation standard MOV): 107.5%
Long-term stability, 3 month, -20°C Accuracy [%] ([5]; validation standard MOV): 105.5%
Long-term stability, 3 month, -80°C Accuracy [%] ([5]; validation standard MOV): 106.8%
Long-term stability, 6 weeks, 4°C, without daylight Accuracy [%] ([5]; validation standard MOV): 104.7%
Long-term stability, 1 month, -20°C Accuracy [%] ([5]; validation standard ULOV): 100.4%
Long-term stability, 1 month, -80°C Accuracy [%] ([5]; validation standard ULOV): 95.0%
Long-term stability, 2 month, -20°C Accuracy [%] ([5]; validation standard ULOV): 105.8%
Long-term stability, 2 month, -80°C Accuracy [%] ([5]; validation standard ULOV): 108.0%
Long-term stability, 3 month, -20°C Accuracy [%] ([5]; validation standard ULOV): 102.6%
Long-term stability, 3 month, -80°C Accuracy [%] ([5]; validation standard ULOV): 98.7%
Long-term stability, 6 weeks, 4°C, without daylight Accuracy [%] ([5]; validation standard ULOV): 98.6%
